One data set addresses EGFR (wild-type) (Homo sapiens, UniProt P00533). Briefly: MSA (Mobility Shift Assay) kinase activity, EGFR wild type. The format is biochemical. The note with it: read-out: EGFR wt/ IC50/nM. In outline:
(§1)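 Kinase preincubated with compound 10 min at room temperature, then reaction started with ATP plus substrate in 1x kinase buffer and run at room temperature. Substrate-to-product conversion read by mobility shift; % inhibition normalised to no-enzyme and no-compound controls, IC50 from variable-slope four-parameter fit.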

The nature of data set [1]: Liver microsome stability test, human. The data set is classed as in vitro ADME. Particulars: human liver microsomes 0.5 mg/ml, compound 1 μM, NADPH 1 mM, within 60 minutes. The protocol: (§2) The compounds of the present disclosure were subjected to a liver microsome stability test. The compounds to be tested were co-incubated with liver microsomes of different species with or without the addition of NADPH. The final concentration of the compounds to be tested in the test system was 1 μM. The final concentration of NADPH was 1 mM, and the final concentration of liver microsomes was 0.5 mg/ml.
In general terms: Liver microsomes are vesicles of endoplasmic reticulum, rich in cytochrome P450 enzymes.

A further data set concerns the target EGFR (L858R/C797S) (Homo sapiens, UniProt P00533, C797S/L858R). Put plainly: MSA (Mobility Shift Assay) kinase activity, EGFR-L858R-C797S. The data set is classed as biochemical. The method in brief: as §1
Data set [2] concerns the target Ba/F3-FL-EGFR-L858R-T790M-C797S (Homo sapiens, UniProt P00533, T790M/C797S/L858R, cells depend on it). Briefly: CellTiter-Glo proliferation, Ba/F3-FL-EGFR-L858R-T790M-C797S. The data set is classed as cell-based. Particulars: 72 hours, read-out: Ba/F3-FL-EGFR-L858R-T790M-C797S IC50/nM. The method in brief: (§3)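 Ba/F3 lines dependent on the indicated EGFR variants were treated with compounds at a final DMSO concentration of 0.1% at 37 °C, 5% CO2. Viability was read by CellTiter-Glo luminescence, and inhibition rate was normalised to DMSO-treated cells (max) and medium-only wells (min). IC50 came from inhibition curves.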

The target of a further data set is EGFR (L858R) (Homo sapiens, UniProt P00533, L858R). Put plainly: MSA (Mobility Shift Assay) kinase activity, EGFR-L858R. The data set is classed as biochemical. In outline: as §1
A short description of data set [3]: Liver microsome stability test, mouse. The note with it: mouse liver microsomes 0.5 mg/ml, compound 1 μM, NADPH 1 mM, within 60 minutes. The format is in vitro ADME. On the procedure:
as §2

The target in the next data set is EGFR (L858R/T790M/C797S) (Homo sapiens, UniProt P00533, C797S/L858R/T790M). Put plainly: MSA (Mobility Shift Assay) kinase activity, EGFR-L858R-T790M-C797S. The format is biochemical. The method in brief: as §1
Another data set has as its target Ba/F3-FL-EGFR-L858R (Homo sapiens, UniProt P00533, L858R, cells depend on it). Briefly: CellTiter-Glo proliferation, Ba/F3-FL-EGFR-L858R. The format is cell-based. Particulars: 72 hours, read-out: Ba/F3-FL-EGFR-L858R IC50/nM. The method in brief: as §3
(ATP-based viability assays read luminescence as a measure of living cells.)

In another data set the target is T1, Ba/F3-FL-EGFR (Homo sapiens, UniProt P00533).
T1 construct: FL read as full length
Put plainly: CellTiter-Glo proliferation, Ba/F3-FL-EGFR. The format is cell-based. Particulars: 72 hours, read-out: Ba/F3-FL-EGFR IC50/nM. In outline: as §3

In data set [4] the test system is Ba/F3-FL-EGFR-del19-C797S. Put plainly: CellTiter-Glo proliferation, Ba/F3-FL-EGFR-del19-C797S. The note with it: read-out: Ba/F3-FL-EGFR-del19-C797S IC50/nM. The format is cell-based. In outline: as §3
In data set [5] the target is T2, Ba/F3-TEL-EGFR-L858R-C797S (Homo sapiens, UniProt P00533, C797S/L858R, cells depend on it).
T2 construct: fused on or other part: N-terminal TEL (ETV6) oligomerising part fused to the EGFR intracellular/kinase part; P41212 (Transcription factor ETV6)
Put plainly: CellTiter-Glo proliferation, Ba/F3-TEL-EGFR-L858R-C797S. The format is cell-based. Particulars: 72 hours, read-out: Ba/F3-TEL-EGFR-L858R-C797S IC50/nM. The method in brief:
as §3

In data set [6] the test system is BaF3 (del19/T790M1C797S) tumor cells. Briefly: In vivo efficacy assay in BALB/c nude mice, subcutaneous BaF3 tumor. Particulars: 25 mg/kg, QD, oral. The protocol:
In vivo efficacy assay in BALB/c nude mice. Details were as follows:
BaF3 (del19/T790M1C797S) tumor cells were cultured and inoculated into 6-8 weeks old female BALB/c nude mice (weighing about 20 g), with all mice being subcutaneously inoculated. The mice were cultured in an SPF-grade experimental environment, and all mice had free access to commercially certified standard diets. When the average tumor volume of the mice grew to about 150 mm^3, the test compound was orally administered daily. The dosage was as follows: blank group vehicle (DMSO/Solutol/H2O, 5/10/85). […] The tumor volume was measured three times a week with a two-dimensional caliper, and the animals were weighed every day. […] The volume calculation formula is: V=1/2a*b^2, where a represents the long diameter of the tumor, and b represents the short diameter of the tumor.

The mark [7] stands for this setting: proliferation, 72 hours, CellTiter-Glo.
The mark [8] stands for this setting: 72 h, proliferation, 72 hours, CellTiter-Glo.

Read-outs that look alike come from different tables or passages of the source. Bounds are passed on as bounds.

Chain of EGFR (L858R) (P00533 25-1210 L858R): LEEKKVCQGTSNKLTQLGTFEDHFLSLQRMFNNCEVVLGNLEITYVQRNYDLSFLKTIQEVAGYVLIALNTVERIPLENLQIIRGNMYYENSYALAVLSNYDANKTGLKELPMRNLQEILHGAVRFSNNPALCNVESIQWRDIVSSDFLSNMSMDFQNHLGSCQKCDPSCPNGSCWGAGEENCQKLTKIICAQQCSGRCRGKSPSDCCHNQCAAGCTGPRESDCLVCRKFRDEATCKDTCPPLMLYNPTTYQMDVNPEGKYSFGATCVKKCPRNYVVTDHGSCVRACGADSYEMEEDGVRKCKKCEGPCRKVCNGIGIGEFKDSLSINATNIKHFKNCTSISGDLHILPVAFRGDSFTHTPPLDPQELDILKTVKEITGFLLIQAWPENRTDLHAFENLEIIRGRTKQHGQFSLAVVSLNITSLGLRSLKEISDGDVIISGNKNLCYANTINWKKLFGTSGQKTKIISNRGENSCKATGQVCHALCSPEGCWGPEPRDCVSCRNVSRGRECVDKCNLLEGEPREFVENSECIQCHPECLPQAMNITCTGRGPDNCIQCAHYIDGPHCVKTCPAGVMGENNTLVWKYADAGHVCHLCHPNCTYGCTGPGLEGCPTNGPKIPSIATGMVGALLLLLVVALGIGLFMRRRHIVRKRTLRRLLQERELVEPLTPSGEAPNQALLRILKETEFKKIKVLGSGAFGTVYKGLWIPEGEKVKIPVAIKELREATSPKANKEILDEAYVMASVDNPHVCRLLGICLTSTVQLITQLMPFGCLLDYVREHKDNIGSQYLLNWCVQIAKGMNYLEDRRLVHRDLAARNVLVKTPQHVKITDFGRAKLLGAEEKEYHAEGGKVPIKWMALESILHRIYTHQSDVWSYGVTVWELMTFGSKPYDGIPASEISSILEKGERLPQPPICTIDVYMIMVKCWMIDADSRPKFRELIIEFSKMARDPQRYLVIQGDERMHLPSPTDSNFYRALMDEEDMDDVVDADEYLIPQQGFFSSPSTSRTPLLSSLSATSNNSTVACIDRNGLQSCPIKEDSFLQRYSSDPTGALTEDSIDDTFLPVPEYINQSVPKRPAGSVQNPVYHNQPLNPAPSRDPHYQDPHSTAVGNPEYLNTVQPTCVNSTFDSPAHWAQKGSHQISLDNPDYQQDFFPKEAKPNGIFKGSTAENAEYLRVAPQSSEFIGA
Chain of Ba/F3-FL-EGFR-L858R (P00533 whole entry L858R): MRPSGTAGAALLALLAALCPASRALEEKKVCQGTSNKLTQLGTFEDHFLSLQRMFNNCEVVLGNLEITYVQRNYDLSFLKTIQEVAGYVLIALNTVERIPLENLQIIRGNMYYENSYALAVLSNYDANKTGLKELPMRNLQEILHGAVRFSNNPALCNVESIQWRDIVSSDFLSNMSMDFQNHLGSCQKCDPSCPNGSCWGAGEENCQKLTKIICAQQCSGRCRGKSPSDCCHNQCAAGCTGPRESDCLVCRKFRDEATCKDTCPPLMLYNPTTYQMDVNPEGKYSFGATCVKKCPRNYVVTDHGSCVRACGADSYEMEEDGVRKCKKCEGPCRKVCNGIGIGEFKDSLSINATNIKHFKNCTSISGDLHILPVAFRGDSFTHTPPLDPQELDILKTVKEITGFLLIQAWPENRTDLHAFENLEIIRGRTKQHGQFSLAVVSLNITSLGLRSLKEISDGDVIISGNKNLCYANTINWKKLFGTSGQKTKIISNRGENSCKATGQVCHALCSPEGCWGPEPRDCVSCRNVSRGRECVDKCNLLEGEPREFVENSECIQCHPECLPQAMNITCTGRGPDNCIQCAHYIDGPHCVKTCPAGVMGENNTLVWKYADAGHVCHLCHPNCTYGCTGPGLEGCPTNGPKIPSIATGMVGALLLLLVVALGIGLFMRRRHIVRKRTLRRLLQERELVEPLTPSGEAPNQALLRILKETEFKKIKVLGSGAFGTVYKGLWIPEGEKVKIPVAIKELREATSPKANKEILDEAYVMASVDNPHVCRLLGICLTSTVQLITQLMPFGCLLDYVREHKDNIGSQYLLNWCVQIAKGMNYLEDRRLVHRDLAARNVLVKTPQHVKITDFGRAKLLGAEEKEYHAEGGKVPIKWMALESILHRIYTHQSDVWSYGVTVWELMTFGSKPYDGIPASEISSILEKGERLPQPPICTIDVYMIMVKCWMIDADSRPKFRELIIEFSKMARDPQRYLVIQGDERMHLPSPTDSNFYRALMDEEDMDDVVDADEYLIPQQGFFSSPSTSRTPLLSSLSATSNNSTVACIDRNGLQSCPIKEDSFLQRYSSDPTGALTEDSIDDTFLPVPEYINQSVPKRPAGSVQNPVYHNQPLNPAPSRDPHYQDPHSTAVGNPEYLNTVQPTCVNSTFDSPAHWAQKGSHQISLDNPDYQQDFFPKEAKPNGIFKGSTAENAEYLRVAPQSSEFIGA
Chain of Ba/F3-FL-EGFR-L858R-T790M-C797S (P00533 whole entry T790M/C797S/L858R): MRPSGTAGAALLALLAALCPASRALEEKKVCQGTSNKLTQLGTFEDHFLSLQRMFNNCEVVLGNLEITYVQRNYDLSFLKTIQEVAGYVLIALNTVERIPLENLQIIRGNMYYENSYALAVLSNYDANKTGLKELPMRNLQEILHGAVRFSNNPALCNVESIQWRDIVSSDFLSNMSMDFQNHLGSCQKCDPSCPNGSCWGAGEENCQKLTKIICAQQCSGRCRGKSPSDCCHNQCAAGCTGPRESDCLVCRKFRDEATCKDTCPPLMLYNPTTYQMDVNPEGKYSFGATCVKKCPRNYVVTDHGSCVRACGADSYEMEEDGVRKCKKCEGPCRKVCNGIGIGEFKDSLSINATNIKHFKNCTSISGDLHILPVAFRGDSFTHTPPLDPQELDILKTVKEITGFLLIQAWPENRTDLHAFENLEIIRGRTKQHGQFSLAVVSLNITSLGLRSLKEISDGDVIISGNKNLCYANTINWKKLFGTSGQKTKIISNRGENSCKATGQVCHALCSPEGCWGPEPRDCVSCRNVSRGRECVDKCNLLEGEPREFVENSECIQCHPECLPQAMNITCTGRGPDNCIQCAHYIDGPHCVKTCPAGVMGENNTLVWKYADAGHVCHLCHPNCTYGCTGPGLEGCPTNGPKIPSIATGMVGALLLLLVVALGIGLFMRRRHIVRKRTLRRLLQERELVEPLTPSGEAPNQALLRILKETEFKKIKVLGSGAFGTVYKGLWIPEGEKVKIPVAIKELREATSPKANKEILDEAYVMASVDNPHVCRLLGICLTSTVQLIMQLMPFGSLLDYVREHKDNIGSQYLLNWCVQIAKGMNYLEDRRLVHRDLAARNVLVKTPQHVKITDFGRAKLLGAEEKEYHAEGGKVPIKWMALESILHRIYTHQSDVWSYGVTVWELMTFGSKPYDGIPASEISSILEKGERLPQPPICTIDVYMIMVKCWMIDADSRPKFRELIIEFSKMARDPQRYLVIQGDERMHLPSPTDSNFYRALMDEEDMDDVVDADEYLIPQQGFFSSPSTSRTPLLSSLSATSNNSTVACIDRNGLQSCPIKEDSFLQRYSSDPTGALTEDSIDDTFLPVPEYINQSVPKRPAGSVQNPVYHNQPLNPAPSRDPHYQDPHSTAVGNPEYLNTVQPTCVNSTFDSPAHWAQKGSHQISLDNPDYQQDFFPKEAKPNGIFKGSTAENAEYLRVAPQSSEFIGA
Chain of EGFR (L858R/T790M/C797S) (P00533 25-1210 T790M/C797S/L858R): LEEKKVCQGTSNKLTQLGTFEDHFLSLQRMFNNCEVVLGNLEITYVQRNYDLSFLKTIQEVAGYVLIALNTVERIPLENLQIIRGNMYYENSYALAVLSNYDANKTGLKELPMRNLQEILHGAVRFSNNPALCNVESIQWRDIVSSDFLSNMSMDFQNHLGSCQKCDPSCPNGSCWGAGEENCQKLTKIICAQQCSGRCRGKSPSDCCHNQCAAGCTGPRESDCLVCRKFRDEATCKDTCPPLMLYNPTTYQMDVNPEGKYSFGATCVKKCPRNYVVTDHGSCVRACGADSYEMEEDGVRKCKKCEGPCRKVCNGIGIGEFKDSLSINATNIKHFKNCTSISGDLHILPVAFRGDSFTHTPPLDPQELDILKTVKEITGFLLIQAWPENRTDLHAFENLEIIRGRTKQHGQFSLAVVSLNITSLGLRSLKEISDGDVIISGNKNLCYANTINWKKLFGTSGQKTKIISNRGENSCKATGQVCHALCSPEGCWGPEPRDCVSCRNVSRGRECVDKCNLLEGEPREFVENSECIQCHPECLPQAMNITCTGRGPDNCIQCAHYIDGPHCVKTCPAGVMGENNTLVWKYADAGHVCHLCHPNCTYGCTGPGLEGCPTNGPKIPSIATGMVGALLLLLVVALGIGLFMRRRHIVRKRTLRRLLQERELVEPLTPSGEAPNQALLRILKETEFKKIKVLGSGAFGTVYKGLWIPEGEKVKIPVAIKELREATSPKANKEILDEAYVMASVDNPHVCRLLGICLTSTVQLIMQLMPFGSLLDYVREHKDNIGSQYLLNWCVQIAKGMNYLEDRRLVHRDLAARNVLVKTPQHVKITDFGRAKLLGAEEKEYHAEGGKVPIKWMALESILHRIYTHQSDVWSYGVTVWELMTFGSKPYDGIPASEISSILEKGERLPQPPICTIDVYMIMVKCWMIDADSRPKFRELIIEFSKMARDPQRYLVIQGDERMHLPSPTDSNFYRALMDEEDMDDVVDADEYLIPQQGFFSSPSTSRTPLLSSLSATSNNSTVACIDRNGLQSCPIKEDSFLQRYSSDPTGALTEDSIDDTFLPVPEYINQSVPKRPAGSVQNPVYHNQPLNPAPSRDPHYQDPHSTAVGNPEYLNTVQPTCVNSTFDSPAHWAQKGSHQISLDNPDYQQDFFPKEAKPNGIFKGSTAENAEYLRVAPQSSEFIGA

For `CC(C)c1ccc(N2CC(CS(C)(=O)=O)C2)c2cnc(Nc3ccnc(-c4cnn(S(=O)(=O)C5CC5)c4)n3)cc12` [Compound H1], the IC50 worked out at 3.9 nM on EGFR (wild-type); 1.5 nM on EGFR (L858R/C797S); 1.6 nM at EGFR (L858R); 0.4 nM at EGFR (L858R/T790M/C797S); 10 nM in data set [4] (setting [7]). The “Human Clint/(mL/min/kg)” value in data set [1] is under 8.6 mL/min/kg. Besides, the GI50 in data set [2] is 16 nM; on Ba/F3-FL-EGFR-L858R it was 5.9 nM; at Ba/F3-FL-EGFR, 101 nM; in data set [5] it was 3.1 nM. Further, in data set [3], the “Mouse Clint/(mL/min/kg)” value worked out at 174 mL/min/kg.
Broadly, the CLint scaled is the rate of metabolic loss divided by the concentration. A lower CLint scaled goes with greater metabolic stability. In the case of `CC(C)c1ccc(N2CC(CS(C)(=O)=O)C2)c2cnc(Nc3ccnc(-c4cnn(S(C)(=O)=O)c4)n3)cc12` [Compound H7], the IC50 worked out at 2.4 nM on EGFR (wild-type), 0.77 nM at EGFR (L858R/C797S), 0.14 nM on EGFR (L858R/T790M/C797S) and 12 nM in data set [4] (setting [8]). For the same molecule, the CLint scaled at 1 μM in data set [1] worked out at 21.3 mL/min/kg; in data set [3], 151 mL/min/kg. Also, the GI50 amounted to 25 nM in [2], 13 nM at Ba/F3-FL-EGFR-L858R, 365 nM at Ba/F3-FL-EGFR and 11 nM in data set [5].
With `CC(C)c1ccc(N2CC(CS(C)(=O)=O)C2)c2cnc(Nc3ccnc(-c4cnn(S(=O)(=O)N(C)C)c4)n3)cc12` [Compound H19], the IC50 turned out to be 7.4 nM on EGFR (wild-type); 4.6 nM at EGFR (L858R/C797S); 2.9 nM at EGFR (L858R); 0.4 nM on EGFR (L858R/T790M/C797S); 57 nM in [4] (setting [8]). Further, the intrinsic clearance (CLint scaled) at 1 μM was found to be 17.2 mL/min/kg in [1] and 61.8 mL/min/kg in data set [3]. The GI50 was 123 nM in data set [2], 64 nM on Ba/F3-FL-EGFR-L858R, 559 nM on Ba/F3-FL-EGFR and 36 nM in [5].
On to `CC(C)c1ccc(N2CC(NS(C)(=O)=O)C2)c2cnc(Nc3ccnc(N4CCC(O)C(F)C4)n3)cc12` (centres unmarked) [Compound P21], for which the IC50 at EGFR (wild-type) is 8.4 nM; on EGFR (L858R/C797S), 2.3 nM; at EGFR (L858R), 1.9 nM; on EGFR (L858R/T790M/C797S) it was 0.06 nM; in data set [4] (setting [8]), 205 nM. Moreover, the results for the CLint scaled at 1 μM in data set [1] and in data set [3] were 13.6 mL/min/kg and 396 mL/min/kg, respectively. Also, the GI50 was 36 nM in data set [2], 76 nM at Ba/F3-FL-EGFR-L858R, 1510 nM on Ba/F3-FL-EGFR and 38.6 nM in data set [5].
In the case of `COC1CCN(c2nccc(Nc3cc4c(C(C)C)ccc(N5CC(NS(C)(=O)=O)C5)c4cn3)n2)CC1F` (centres unmarked) [Compound P29], the IC50 at EGFR (wild-type) came to 8.4 nM; on EGFR (L858R/C797S), 2.5 nM; on EGFR (L858R), 1.3 nM; at EGFR (L858R/T790M/C797S), 0.07 nM; in [4] (setting [8]) it was 202 nM. For the same molecule, the intrinsic metabolic clearance (CLint scaled) at 1 μM came to 23.4 mL/min/kg in data set [1] and 440 mL/min/kg in data set [3]. Besides, the GI50 in [2] was found to be 13 nM; at Ba/F3-FL-EGFR-L858R it was 41 nM; at Ba/F3-FL-EGFR, 1090 nM; in data set [5] it was 13 nM.
Take `CC(C)c1ccc(N2CC(NS(C)(=O)=O)C2)c2cnc(Nc3ccnc(N4CCC(O)C(F)(F)C4)n3)cc12` (centres unmarked) [Compound P30]: the IC50 was 18.1 nM at EGFR (wild-type); 4.8 nM at EGFR (L858R/C797S); 3.5 nM on EGFR (L858R); 0.1 nM at EGFR (L858R/T790M/C797S); 200 nM in data set [4] (setting [8]). The figures for the CLint scaled at 1 μM in [1] and in data set [3] were under 8.6 mL/min/kg and 230 mL/min/kg, respectively. For the same molecule, the GI50 turned out to be 47 nM in data set [2], 111 nM at Ba/F3-FL-EGFR-L858R, 2340 nM at Ba/F3-FL-EGFR and 48 nM in data set [5].
With `CC(C)c1ccc(N2CC(NS(C)(=O)=O)C2)c2cnc(Nc3ccnc(N4CCC(O)C(C)(F)C4)n3)cc12` (centres unmarked) [Compound P45], the IC50 on EGFR (wild-type) amounted to 20.7 nM; on EGFR (L858R/C797S) it was 7.6 nM; at EGFR (L858R) it was 4.1 nM; at EGFR (L858R/T790M/C797S), 0.18 nM; in data set [4] (setting [8]), 265 nM. The GI50 came out at 38 nM in data set [2], 181 nM on Ba/F3-FL-EGFR-L858R, 2780 nM on Ba/F3-FL-EGFR and 61 nM in data set [5].
As to `CC(C)c1ccc(N2CC(NS(C)(=O)=O)C2)c2cnc(Nc3ccnc(N4CCC(O)C(C)(F)C4)n3)cc12` (centres unmarked) [Compound P46], the IC50 at EGFR (wild-type) was found to be 41.8 nM; at EGFR (L858R/C797S), 9.3 nM; at EGFR (L858R), 6.2 nM; on EGFR (L858R/T790M/C797S), 0.61 nM; in data set [4] (setting [7]), 308 nM. In addition, the GI50 in data set [2] is 271 nM; on Ba/F3-FL-EGFR-L858R it was 208 nM; on Ba/F3-FL-EGFR it was 3110 nM; in [5], 88 nM.
Turning to `CC(C)c1ccc(N2CC(NS(C)(=O)=O)C2)c2cnc(Nc3ccnc(N4CCC(C)(O)C(F)C4)n3)cc12` (centres unmarked) [Compound P51], the IC50 on EGFR (wild-type) was 13.4 nM; at EGFR (L858R/C797S), 4.2 nM; on EGFR (L858R), 2.5 nM; at EGFR (L858R/T790M/C797S), 0.12 nM; in [4] (setting [8]) it was 181 nM. The GI50 was found to be 63 nM in [2], 86 nM on Ba/F3-FL-EGFR-L858R, 1750 nM on Ba/F3-FL-EGFR and 28 nM in data set [5].
As a reminder, the TGI is how far tumour growth fell short of that in controls. A low value points to a weaker effect on the tumour. Consider `C=CC(=O)Nc1cc(Nc2nccc(-c3cn(C)c4ccccc34)n2)c(OC)cc1N(C)CCN(C)C` [Osimertinib, osimertinib, reference compound], for which, in data set [6] (after 13 consecutive days of administration), the “Tumor volume (mm^3)” value was found to be 3110 mm^3. Besides, in data set [6] (after 13 consecutive days, based on final tumor volume), the TGI was determined as 20%. In addition, in data set [4] (72 h), the IC50 was 906 nM.

These data come from patent US20250092017A1, “2-PIPERIDYL OR 2-PYRAZOLYL SUBSTITUTED PYRIMIDINE COMPOUND SERVING AS EGFR INHIBITOR” (SUZHOU PUHE BIOPHARMA CO., LTD., priority 2022, published 2025).
